According to patent publication US20080125488A1, “Lactate Containing Pharmaceutical Composition and Uses Thereof” (priority 2003, published 2008):

Assays:
[1] = system: patients suffering from brain injury (brain trauma) with increased intracranial pressure; test: Treatment of increased intracranial pressure caused by brain trauma; format: in vivo, human
Experimental: For this purpose, the composition of the invention or the mannitol was administered (infused) to a group of each twelve patients and the ICP was measured every 15 minutes.
The results of this study, in which 12 patients were either treated with mannitol or the hypertonic lactate solution of the invention, are shown in FIGS. 1 to 4 as well as in Tables 2 to 5.

isolated rat hearts = test: In vitro model for ischemia (perfused isolated rat hearts); conditions: 5 mM lactate
Experimental: In order to determine the suitability of lactate for the treatment of conditions such as ischemia-reperfusion, isolated rat harts were perfused either with perfusion medium containing 5 mM lactate or with a perfusion medium (control) containing 0.2 mM of hexanoic acid and 5.5 mM glucose in accordance with the protocol described by Garnier A. et al., J Mol Cell Cardiol 1996, 28, 1671-1682.

Row | SMILES | CPP after treatment ([1]; after treatment) [mm Hg] | ICP after treatment ([1]; after treatment) [mm Hg] | CPP before treatment ([1]; before treatment) [mm Hg] | ICP before treatment ([1]; before treatment, mean ± sem) [mm Hg] | number of survival ([1]; brain trauma patients, survivors out of group) | number of successful treatment (only first treatment) ([1]; first treatment only) | patients that survived the brain trauma ([1]; groups of 12 patients (FIG. 2)) | number of successful treatment (all treatments) ([1]; out of all ICH episodes treated) | number of cross over ([1]; patients switched to the other treatment after failure) | decrease in the intracranial pressure ([1]; within the first 30 minutes after the treatment (FIG. 1)) | ICP as share of the initial untreated ICP ([1]; within the next 3.5 hours after the treatment (rebound, FIG. 1)) | rate pressure product (isolated rat hearts; 40 minutes perfusion after 40 minutes ischemia, compared to control (FIG. 9A)) | heart rate (isolated rat hearts; 40 minutes perfusion after 40 minutes ischemia, compared to control (FIG. 9C)) | diastolic pressure (isolated rat hearts; compared to control (FIG. 9B))
1 | OC[C@@H](O)[C@@H](O)[C@H](O)[C@H](O)CO [mannitol] | 73.2 ± 2.4 | 25.7 ± 1.7 | 67.6 ± 2.2 | 31 ± 1.8 | 7 out of 11 | 5 out of 11 | 7 | 14 out of 25 | 4 out of 11 | about 20% | about 90% |  |  | 
2 | CC(O)C(=O)O (centres unmarked) [lactate] |  |  |  |  |  |  |  |  |  |  |  | significantly higher and prolonged increase | significantly higher and prolonged increase | significantly decreased
